According to ChEMBL document CHEMBL5465560, “Selectivity Literature for EUbOPEN Chemogenomic Library” (2024):
Blank lines part the entries; values can stand above or below the molecule they belong to.

Legend:
[1] = molecular target: Serine/threonine-protein kinase MARK2 (Homo sapiens) (UniProt Q7KZI7); test: Selectivity interaction (KinomeScan (DiscoverX)) EUB0001049a MARK2; conditions: at 1 µM
[2] = molecular target: Atypical kinase COQ8A, mitochondrial (Homo sapiens, UniProt Q8NI60); test: Selectivity interaction (KinomeScan (DiscoverX)) EUB0001049a ADCK3; conditions: at 1 µM
[3] = molecular target: Mitogen-activated protein kinase kinase kinase kinase 1 (Homo sapiens) (UniProt Q92918); test: Selectivity interaction (ActivX KiNativ screen (kinase selectivity in THP-1 cell lysates)) EUB0000639a MAP4K1; format: subcellular; conditions: lysate, at 0.2 µM
[4] = molecular target: Tyrosine-protein kinase Lyn (Homo sapiens, UniProt P07948); test: Selectivity interaction (ActivX KiNativ screen (kinase selectivity in THP-1 cell lysates)) EUB0000639a LYN; format: subcellular; conditions: lysate, at 1 µM
[5] = molecular target: Serine/threonine-protein kinase 33 (Homo sapiens) (UniProt Q9BYT3); test: Selectivity interaction (LanthaScreen Eu Kinase Binding Assay) EUB0001632a STK33; conditions: at 10 µM
[6] = molecular target: Calcium/calmodulin-dependent protein kinase type II subunit delta (Homo sapiens) (UniProt Q13557); test: Selectivity interaction (KinomeScan (DiscoverX)) EUB0000595a CAMK2D; conditions: at 10 µM
[7] = molecular target: Serine/threonine-protein kinase PLK3 (Homo sapiens, UniProt Q9H4B4); test: Selectivity interaction (KinomeScan (DiscoverX)) EUB0000229b PLK3; conditions: at 10 µM
[8] = molecular target: Tyrosine-protein kinase Fyn (Homo sapiens) (UniProt P06241); test: Selectivity interaction (ProQinase) EUB0000171b FYN
[9] = molecular target: T1, Tyrosine-protein kinase JAK3 (Homo sapiens) (UniProt P52333); test: Selectivity interaction (KinomeScan (DiscoverX)) EUB0000045b JAK3; conditions: at 1 µM
T1 sequence (whole entry): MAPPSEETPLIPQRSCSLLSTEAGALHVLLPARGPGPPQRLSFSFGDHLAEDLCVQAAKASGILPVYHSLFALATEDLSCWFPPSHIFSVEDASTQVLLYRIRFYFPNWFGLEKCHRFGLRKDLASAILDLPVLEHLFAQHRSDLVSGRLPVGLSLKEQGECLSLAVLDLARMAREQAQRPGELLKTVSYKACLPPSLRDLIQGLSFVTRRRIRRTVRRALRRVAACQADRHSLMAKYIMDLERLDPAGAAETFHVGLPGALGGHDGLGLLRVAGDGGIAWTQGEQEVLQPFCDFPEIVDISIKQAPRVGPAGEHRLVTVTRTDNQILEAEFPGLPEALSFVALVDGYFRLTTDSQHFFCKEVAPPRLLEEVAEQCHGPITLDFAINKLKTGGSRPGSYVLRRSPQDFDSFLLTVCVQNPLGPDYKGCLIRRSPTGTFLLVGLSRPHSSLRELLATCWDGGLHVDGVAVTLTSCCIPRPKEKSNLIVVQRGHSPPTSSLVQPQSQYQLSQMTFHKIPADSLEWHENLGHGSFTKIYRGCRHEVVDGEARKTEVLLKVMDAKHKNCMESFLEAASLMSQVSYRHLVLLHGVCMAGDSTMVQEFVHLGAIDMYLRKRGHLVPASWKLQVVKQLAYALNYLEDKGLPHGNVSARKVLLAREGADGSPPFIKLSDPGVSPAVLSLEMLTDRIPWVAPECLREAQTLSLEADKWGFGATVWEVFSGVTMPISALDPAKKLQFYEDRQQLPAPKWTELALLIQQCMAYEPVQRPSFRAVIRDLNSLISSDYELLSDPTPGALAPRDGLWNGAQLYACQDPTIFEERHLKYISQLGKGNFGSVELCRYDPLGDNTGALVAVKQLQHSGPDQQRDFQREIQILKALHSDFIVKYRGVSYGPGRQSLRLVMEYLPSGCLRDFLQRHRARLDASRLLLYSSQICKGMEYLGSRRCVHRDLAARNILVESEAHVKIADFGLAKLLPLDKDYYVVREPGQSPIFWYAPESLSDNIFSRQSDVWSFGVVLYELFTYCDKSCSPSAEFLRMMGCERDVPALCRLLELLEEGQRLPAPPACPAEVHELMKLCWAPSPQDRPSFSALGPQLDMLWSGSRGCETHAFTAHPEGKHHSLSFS

[10] = molecular target: Fibroblast growth factor receptor 3 (Homo sapiens, UniProt P22607); test: (§1) Selectivity interaction (KinomeScan (DiscoverX)) EUB0000655a FGFR3; conditions: at 10 µM
[11] = system: Fibroblast growth factor receptor 3 (Homo sapiens), P22607 [G697C]; test: as §1; conditions: at 10 µM
[12] = Selectivity interaction (KinomeScan (DiscoverX)) EUB0000655a CDPK1; conditions: at 10 µM
[13] = molecular target: T2, Serine/threonine-protein kinase Sgk3 (Homo sapiens) (UniProt Q96BR1); test: Selectivity interaction (Kinase panel (KiNativ target engagement assay in Jurkat cells)) EUB0001635a SGK3; format: cell-based; conditions: at 1 µM
T2 sequence (whole entry): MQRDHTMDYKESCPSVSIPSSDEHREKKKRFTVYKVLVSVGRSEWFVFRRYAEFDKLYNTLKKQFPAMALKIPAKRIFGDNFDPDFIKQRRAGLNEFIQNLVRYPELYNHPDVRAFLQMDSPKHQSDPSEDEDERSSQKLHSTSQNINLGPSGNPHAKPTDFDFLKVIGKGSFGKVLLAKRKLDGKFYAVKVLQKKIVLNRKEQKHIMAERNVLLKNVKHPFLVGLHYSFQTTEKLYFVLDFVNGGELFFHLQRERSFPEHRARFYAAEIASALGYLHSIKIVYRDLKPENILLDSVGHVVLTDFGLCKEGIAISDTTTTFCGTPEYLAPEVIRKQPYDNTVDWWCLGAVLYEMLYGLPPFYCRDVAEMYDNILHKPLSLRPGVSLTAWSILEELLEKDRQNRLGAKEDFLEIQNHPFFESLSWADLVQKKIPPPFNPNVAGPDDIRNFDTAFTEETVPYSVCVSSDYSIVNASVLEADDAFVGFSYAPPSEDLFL

[14] = molecular target: Tyrosine-protein kinase BTK (Homo sapiens, UniProt Q06187); test: Selectivity interaction (KinomeScan (DiscoverX)) EUB0000666a BTK; conditions: at 10 µM
Sequence of Tyrosine-protein kinase BTK (Q06187 whole entry): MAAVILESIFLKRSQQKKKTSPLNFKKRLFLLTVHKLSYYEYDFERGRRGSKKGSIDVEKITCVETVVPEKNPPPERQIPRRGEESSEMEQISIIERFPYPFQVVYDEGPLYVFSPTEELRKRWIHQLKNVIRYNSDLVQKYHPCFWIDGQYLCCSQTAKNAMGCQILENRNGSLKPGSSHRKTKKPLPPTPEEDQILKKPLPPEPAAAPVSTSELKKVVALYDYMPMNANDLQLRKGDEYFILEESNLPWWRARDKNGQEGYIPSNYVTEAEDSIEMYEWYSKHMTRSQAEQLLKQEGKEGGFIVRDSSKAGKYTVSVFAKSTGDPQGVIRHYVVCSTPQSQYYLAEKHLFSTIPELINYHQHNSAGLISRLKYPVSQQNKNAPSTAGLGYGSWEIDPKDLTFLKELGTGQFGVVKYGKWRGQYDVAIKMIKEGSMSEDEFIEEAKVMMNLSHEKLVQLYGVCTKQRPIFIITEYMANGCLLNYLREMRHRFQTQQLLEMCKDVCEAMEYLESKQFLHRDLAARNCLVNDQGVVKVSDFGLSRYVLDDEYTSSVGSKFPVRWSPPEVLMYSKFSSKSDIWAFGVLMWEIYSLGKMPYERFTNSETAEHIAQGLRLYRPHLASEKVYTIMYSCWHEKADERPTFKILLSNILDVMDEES

Sequence of Tyrosine-protein kinase Fyn (Homo sapiens) (P06241 2-537 limits assumed): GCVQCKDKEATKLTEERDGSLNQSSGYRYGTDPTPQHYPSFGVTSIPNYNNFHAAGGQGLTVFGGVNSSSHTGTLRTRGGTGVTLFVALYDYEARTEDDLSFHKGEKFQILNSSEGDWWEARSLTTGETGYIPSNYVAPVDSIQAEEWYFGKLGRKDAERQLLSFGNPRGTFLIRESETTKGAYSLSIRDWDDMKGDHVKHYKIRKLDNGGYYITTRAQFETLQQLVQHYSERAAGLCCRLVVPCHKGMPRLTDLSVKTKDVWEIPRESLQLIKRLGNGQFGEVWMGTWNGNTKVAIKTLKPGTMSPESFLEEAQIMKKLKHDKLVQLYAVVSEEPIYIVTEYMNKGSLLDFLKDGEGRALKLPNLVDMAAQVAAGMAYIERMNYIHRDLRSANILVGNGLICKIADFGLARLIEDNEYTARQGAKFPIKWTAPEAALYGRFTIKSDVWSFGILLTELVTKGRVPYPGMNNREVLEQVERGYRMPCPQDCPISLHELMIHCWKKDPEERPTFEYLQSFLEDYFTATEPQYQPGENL
Sequence of Calcium/calmodulin-dependent protein kinase type II subunit delta (Homo sapiens) (Q13557 whole entry): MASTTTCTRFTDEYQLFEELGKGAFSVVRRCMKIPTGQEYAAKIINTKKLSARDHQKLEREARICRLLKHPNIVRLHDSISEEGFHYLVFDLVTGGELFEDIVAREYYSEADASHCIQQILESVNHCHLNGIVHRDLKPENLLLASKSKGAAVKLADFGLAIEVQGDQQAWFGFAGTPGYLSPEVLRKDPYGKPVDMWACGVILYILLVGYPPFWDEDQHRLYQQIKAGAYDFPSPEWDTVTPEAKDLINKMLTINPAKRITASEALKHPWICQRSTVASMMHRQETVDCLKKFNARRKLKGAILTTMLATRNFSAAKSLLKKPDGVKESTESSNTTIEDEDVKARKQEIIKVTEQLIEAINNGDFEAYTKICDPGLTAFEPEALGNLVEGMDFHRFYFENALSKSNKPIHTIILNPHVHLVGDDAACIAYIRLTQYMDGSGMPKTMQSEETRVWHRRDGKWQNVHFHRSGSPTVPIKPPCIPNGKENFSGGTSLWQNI
Sequence of Mitogen-activated protein kinase kinase kinase kinase 1 (Homo sapiens) (Q92918 whole entry, looked up): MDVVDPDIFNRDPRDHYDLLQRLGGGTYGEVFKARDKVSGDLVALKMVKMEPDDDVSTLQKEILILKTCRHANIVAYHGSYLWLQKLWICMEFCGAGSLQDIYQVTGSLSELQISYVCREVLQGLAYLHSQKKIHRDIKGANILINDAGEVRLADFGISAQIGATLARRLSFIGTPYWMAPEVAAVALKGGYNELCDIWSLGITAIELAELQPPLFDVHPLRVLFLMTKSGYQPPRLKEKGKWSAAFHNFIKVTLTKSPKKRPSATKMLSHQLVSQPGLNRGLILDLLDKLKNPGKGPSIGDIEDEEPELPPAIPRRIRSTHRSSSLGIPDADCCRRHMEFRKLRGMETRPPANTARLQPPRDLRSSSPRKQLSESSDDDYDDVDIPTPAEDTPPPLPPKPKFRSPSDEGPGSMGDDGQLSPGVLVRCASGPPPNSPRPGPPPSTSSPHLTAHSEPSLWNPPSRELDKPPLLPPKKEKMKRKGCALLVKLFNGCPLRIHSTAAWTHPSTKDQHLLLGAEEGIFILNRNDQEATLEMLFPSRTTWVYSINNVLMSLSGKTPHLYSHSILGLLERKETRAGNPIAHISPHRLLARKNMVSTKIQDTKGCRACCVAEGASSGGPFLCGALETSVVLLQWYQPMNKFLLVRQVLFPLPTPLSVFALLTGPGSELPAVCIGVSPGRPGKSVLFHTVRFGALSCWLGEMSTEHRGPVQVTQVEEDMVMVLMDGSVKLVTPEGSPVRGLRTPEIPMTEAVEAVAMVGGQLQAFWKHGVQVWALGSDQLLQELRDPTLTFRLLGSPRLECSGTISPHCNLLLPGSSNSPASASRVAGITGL
Sequence of Atypical kinase COQ8A, mitochondrial (Q8NI60 163-647 limits assumed): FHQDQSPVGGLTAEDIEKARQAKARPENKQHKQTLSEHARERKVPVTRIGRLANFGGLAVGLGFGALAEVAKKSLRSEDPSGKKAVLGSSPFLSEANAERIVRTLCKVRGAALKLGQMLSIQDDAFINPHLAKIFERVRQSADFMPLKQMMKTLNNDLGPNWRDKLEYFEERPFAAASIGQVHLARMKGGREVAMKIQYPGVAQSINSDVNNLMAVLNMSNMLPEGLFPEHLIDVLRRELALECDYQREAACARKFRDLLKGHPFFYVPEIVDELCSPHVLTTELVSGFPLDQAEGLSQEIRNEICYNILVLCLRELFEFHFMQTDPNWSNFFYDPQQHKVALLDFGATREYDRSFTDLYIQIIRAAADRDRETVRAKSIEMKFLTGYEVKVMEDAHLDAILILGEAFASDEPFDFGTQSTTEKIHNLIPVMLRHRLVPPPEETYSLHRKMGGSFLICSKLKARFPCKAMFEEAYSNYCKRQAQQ
Sequence of Fibroblast growth factor receptor 3 (P22607 23-806 limits assumed): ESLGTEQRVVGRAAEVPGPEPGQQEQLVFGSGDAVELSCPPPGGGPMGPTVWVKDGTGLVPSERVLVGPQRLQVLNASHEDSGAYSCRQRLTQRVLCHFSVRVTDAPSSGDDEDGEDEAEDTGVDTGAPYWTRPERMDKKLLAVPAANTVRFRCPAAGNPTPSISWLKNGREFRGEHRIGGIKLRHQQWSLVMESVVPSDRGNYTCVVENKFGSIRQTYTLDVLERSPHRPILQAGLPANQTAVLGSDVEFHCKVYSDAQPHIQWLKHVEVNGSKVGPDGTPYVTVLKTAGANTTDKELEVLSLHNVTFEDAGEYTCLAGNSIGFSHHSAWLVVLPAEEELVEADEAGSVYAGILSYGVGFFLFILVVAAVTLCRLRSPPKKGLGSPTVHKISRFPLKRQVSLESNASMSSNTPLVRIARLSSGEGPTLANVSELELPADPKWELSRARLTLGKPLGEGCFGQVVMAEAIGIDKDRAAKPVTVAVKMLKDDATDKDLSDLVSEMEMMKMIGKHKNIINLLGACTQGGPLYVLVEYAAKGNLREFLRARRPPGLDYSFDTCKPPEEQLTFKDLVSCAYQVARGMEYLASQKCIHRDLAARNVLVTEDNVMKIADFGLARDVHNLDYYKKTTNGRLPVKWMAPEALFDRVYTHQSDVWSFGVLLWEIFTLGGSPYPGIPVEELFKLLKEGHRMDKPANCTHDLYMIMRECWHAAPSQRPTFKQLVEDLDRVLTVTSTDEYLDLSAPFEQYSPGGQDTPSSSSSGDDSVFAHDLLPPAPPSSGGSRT
Sequence of Fibroblast growth factor receptor 3 (Homo sapiens), P22607 [G697C] (P22607 whole entry G697C): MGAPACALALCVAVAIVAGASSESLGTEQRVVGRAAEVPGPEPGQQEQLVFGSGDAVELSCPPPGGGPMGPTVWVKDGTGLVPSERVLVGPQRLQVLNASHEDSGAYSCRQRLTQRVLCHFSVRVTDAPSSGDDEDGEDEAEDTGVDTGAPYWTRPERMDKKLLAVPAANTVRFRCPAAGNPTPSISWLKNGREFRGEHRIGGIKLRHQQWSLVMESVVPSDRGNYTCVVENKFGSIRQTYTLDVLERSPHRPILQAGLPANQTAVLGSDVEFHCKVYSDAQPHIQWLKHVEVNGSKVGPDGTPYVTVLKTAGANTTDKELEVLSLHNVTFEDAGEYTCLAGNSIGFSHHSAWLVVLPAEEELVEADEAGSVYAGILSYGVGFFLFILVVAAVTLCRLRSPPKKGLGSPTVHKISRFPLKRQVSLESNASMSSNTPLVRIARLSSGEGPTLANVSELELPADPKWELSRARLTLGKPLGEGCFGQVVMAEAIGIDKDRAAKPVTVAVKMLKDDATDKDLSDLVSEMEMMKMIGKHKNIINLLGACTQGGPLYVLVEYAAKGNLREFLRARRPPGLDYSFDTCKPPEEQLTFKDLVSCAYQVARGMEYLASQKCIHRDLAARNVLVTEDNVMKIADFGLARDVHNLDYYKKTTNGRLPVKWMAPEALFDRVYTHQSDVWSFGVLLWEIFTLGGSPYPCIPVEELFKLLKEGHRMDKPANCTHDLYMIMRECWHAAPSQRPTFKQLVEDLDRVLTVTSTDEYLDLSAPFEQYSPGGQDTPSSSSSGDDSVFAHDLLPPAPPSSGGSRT

SMILES: COc1cc(Nc2nc(C)cc(-c3cnn4nc(OC)ccc34)n2)cc(C(F)(F)F)c1
% of control [1]: 77%
% of control [2]: 91%

% of inhibition [3]: -15.1%
% of inhibition [4]: -14.1%
SMILES: CC[C@@H]1[C@H](F)C(=O)N[C@@H]1COc1nccc2cc(C(N)=O)c(OC)cc12 [ZIMLOVISERTIB]

% of inhibition [5]: -17.6%
SMILES: Cn1cc(-n2cnc3c(NCc4nc5cc(Cl)c(Cl)cc5[nH]4)nc(N4CCOCC4)nc32)cn1

SMILES: COCC(=O)NC/C=C/c1ccc2ncnc(Nc3ccc(Oc4ccc(C)nc4)c(C)c3)c2c1 [CP-724714]
% of control [6]: 100%

SMILES: COc1cc(N(C)c2ccnc3ccc(C(F)(F)F)cc23)cc(OC)c1OC
% binding [7]: 74%

% of control ([8]; at 1 µM): 101%
% of control ([8]; at 5 µM): 100%
SMILES: C=CC(=O)Nc1cccc(C(=O)Nc2ccc(Nc3cc(-c4[nH]c(SC)nc4C)ccn3)cc2)c1

SMILES: C=CC(=O)Nc1cc(-n2c(=O)ccc3cnc4ccc(-c5ccc(NS(C)(=O)=O)cc5)cc4c32)ccc1C
% of control [9]: 6.6%

SMILES: CN(C)CCOc1ccc(-c2nc(-c3ccncc3)c(-c3ccc4c(c3)CC/C4=N\O)[nH]2)cc1
% of control [10]: 100%
% of control [11]: 100%
% of control [12]: 15%

SMILES: C=CC(=O)Nc1ccc(C(=O)Nc2[nH]nc3c2CN(C(=O)N[C@H](CN(C)C)c2ccccc2)C3(C)C)cc1
% of engagement ([13]; Selectivity number of off-targets 0.0, Selectivity number of targets 233.0, Source Knowledge https://www.sciencedirect.com/science/article/pii/S2451945619300674?via%3Dihub): 15.8%
% of engagement [13]: 6.4%

SMILES: O=C(NOC[C@H](O)CO)c1ccc(F)c(F)c1Nc1ccc(I)cc1F
% of control [14]: 87%
